Test results taken from patent publication US20180057553A1, “CONJUGATE AND USE THEREOF” (The University of Tokyo, priority 2015, published 2018).
Like-named read-outs stand apart in the source and are kept apart here.

Key:
[1] = biological target: T1, Recombinant human intelectin-1 (Homo sapiens, UniProt Q8WWA0, V109D); assay: Inhibition of the binding of intelectin to a 3-amino-1-propanediol sensor chip by various compounds (Biacore, Example 3)
Method: The binding of purified intelectin to a sensor chip to which 3-amino-1-propanediol is fixed via an amino group was measured using Biacore (GE Healthcare Biosciences) under the presence of various kinds of compounds that were serially diluted. Recombinant human intelectin-1 was used as intelectin. The above-mentioned compound was a compound containing or not containing a diol group. Specifically, the compound was glycerol, 1,2-propanediol, 1,3-propanediol, 1-propanol, ethylene glycol, ethanol, 2-methoxyethanol, galactose, 2-acetamido-2-deoxy-4-O-beta-D-galactopyranosyl-D-glucopyranose (Galp-GlcNAc), 2-acetamido-2-deoxy-4-O-beta-D-galactofuranosyl-D-glucopyranose (Galf-GlcNAc), D-ribose, or L-ribose.
Intelectin was used at the final concentration of 0.5 microgram/mL. 10 mM HEPES (pH 7.0) containing 1 mM CaCl2, 150 mM NaCl, and 0.03% Tween 20 was used as the measuring buffer. The binding of intelectin measured using the sample that was not added with an above-mentioned compound was considered 100%, and the binding of intelectin in each sample was measured.

[2] = biological target: T1, Recombinant human intelectin-1; assay: Binding of monoacylglycerol and intelectin (precipitation, SDS-PAGE, Example 5); conditions: lipid 100 micro M in medium containing intelectin, 15 minutes at 37 deg C
Method: Monoacylgrycerols such as monopalmitin and monoolein are used as a component of micelles or liposomes. 1-monopalmitin, 2-monopalmitin, or 1-palmitoyl lysophosphatidic acid as a negative control at the final concentration of 100 micro M was added to 500 microliters of a medium containing intelectin, and the medium was stirred intensely and incubated for 15 minutes at 37 deg C. Recombinant human intelectin-1 was used as intelectin. By the above-mentioned procedures, it is expected that insoluble aggregates having a micelle-like structure with the diol group facing outwards and the acyl group facing inwards are formed and intelectin binds on the surface.
Subsequently, the samples were cooled for 15 minutes at 4 deg C. and centrifuged, and the precipitation was collected, washed once with buffer, and dissolved in sample buffer. Samples were then separated by SDS-PAGE and stained with Coomassie Brilliant Blue.

[3] = biological target: IL-6 protein (Homo sapiens, UniProt P05231); assay: ELISA on IL-6 protein with the conjugate of antibody Fab fragment and intelectin (Example 8); format: binding; conditions: conjugate as primary antibody; HRP-labeled anti-intelectin-1 antibody 2D2
Sequence of IL-6 protein (P05231 30-212): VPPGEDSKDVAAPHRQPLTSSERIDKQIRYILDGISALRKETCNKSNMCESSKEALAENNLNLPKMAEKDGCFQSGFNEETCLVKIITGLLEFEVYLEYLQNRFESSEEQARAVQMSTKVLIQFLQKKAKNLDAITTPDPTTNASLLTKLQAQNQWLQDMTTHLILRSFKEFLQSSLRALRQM
Method: An ELISA analysis on IL-6 protein was performed using the conjugate generated in Example 6.
More specifically, IL-6 protein was adsorbed on an ELISA plate, and the conjugate generated in Example 6 was used for reaction as the primary antibody, and the horseradish peroxidase-labeled anti-intelectin-1 monoclonal antibody (2D2) was used for reaction as the secondary antibody. The detection was conducted using 3,3′,5,5′-tetramethylbenzidine.

[4] = biological target: T2, Recombinant human TNF-alpha (Homo sapiens, UniProt P01375); assay: Inhibitory effect on cytotoxicity by TNF-alpha in L929 cells (Example 12); format: cell-based, mouse; conditions: actinomycin D 2.12 micro M, TNF-alpha 1 ng/mL, 24 hours
T2 construct: purchased Life Technologies
T2 sequence (P01375 77-233 limits assumed): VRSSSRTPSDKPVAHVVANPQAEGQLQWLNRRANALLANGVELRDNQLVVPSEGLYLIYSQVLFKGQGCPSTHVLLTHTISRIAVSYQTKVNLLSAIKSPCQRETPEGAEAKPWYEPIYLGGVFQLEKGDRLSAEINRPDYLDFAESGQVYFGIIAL
Method: Actinomycin D at the final concentration of 2.12 micro M, recombinant human TNF-alpha (Life Technologies) at the final concentration of 1 ng/mL, and serially diluted conjugates generated in Example 7 were added to the medium of L929, a mouse-derived cell line, and the cells were cultured for 24 hours at 37 deg C. Subsequently, the number of live cells were measured using a commercially available kit (model “CellTiter96 (Trademark),” Promega), and the cell survival rate was determined. Another experiment, where a commercially available anti-TNF formulation (Etanercept, soluble TNF receptor, product name “ Enbrel (registered trademark),” Takeda Pharmaceutical Company) was used instead of the conjugate generated in Example 7, was also performed as a control.

[5] = biological target: T2, Recombinant human TNF-alpha; assay: Affinity between the conjugate of TNFR2 and intelectin and TNF-alpha (Biacore, Example 11); format: binding; conditions: TNF-alpha as analyte, ligand fixed to sensor chip
Method: The binding affinity between the conjugate generated in Example 7 and TNF-alpha was measured using Biacore (GE Healthcare Biosciences). The binding affinity between a commercially available anti-TNF formulation (Etanercept, soluble TNF receptor, product name “ Enbrel (registered trademark),” Takeda Pharmaceutical Company) and TNF-alpha was also measured as a control.
Recombinant human TNF-alpha (Life Technologies) was used as TNF-alpha.

[6] = Biacore, intelectin 0.5 microgram/mL, sensor chip with 3-amino-1-propanediol fixed, 10 mM HEPES pH 7.0, 1 mM CaCl2, read-out: IC50 for inhibition of the binding of intelectin and the diol group

T1 sequence (Q8WWA0 19-298 V109D): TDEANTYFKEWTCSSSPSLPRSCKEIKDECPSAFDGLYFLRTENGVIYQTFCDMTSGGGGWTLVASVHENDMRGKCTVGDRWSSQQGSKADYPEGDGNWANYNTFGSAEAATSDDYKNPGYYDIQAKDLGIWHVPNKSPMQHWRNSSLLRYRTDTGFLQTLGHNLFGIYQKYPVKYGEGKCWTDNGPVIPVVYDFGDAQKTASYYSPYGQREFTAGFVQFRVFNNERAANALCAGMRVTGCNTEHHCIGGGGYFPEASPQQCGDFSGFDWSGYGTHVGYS

CCCC(=O)OCC(O)CO (stereo not drawn) [monobutyrin]
IC50 [1, 6]: 0.8 mM

CC(=O)N[C@H]1C(O)O[C@H](CO)[C@@H](O)[C@@H]1O (stereo partly drawn) [N-acetylglucosamine]
IC50 [1, 6]: 50 mM

OCCCO [1,3-propanediol]
IC50 [1, 6]: 30 mM

CC(O)CCO (stereo not drawn) [1,3-butanediol]
IC50 [1, 6]: 35 mM

NCC(O)CO (stereo not drawn) [3-amino-1,2-propanediol]
IC50 [1, 6]: 1.8 mM

O=C[C@H](O)[C@@H](O)[C@@H](O)[C@H](O)CO [D-galactose]
IC50 [1]: 11 mM

OCCCCO [1,4-butanediol]
IC50 [1]: > 100 mM

O=CC[C@@H](O)[C@@H](O)[C@H](O)CO [2-deoxygalactose]
IC50 [1, 6]: 1.1 mM

OCCO [ethylene glycol]
IC50 [1]: 2.2 mM

C[C@H](O)[C@H](C)O [(S,S)-2,3-butanediol]
IC50 [1, 6]: 5 mM

NCCCO [3-amino-1-propanol]
IC50 [1, 6]: > 100 mM

O=C[C@@H](O)[C@@H](O)[C@@H](O)CO [L-ribose]
IC50 [1, 6]: 0.3 mM

O=C[C@H](O)[C@H](O)[C@@H](O)CO [L-lyxose]
IC50 [1, 6]: 13 mM

CC(=O)N[C@H]1C(O)O[C@H](CO)[C@@H](O[C@@H]2O[C@H](CO)[C@H](O)[C@H](O)[C@H]2O)[C@@H]1O (stereo partly drawn) [Galp-GlcNAc, 2-acetamido-2-deoxy-4-O-beta-D-galactopyranosyl-D-glucopyranose]
IC50 [1, 6]: 13 mM

CC(O)CO (stereo not drawn) [1,2-propanediol]
IC50 [1, 6]: 0.9 mM

CCCO [1-propanol]
IC50 [1, 6]: > 100 mM

CCCCCCCCCCCCCCCC(=O)OCC(O)COP(=O)(O)O (stereo not drawn) [1-palmitoyl lysophosphatidic acid]
binding of intelectin to the lipid (SDS-PAGE) [2]: only slightly

O=C[C@H](O)[C@@H](O)[C@H](O)[C@H](O)CO [D-glucose]
IC50 [1]: 18 mM

CCO [ethanol]
IC50 [1, 6]: > 100 mM

conjugate generated in Example 6: H chain Fab region of anti-IL-6 monoclonal antibody MH166 joined via one glycine to human intelectin-1 (S165A), co-expressed with MH166 L chain
binding to IL-6 protein (ELISA) [3]: bind to IL-6 protein

C[C@@H](O)[C@@H](C)O [(R,R)-2,3-butanediol]
IC50 [1, 6]: 5 mM

CCC(O)CO (stereo not drawn) [1,2-butanediol]
IC50 [1, 6]: 0.8 mM

C[C@H](O)[C@@H](C)O [meso-2,3-butanediol]
IC50 [1, 6]: 1.8 mM

C[C@@H](O)[C@H](O)[C@H](O)[C@@H](O)C=O [D-fucose]
IC50 [1, 6]: 60 mM

O=C[C@H](O)[C@@H](O)[C@H](O)CO [D-xylose]
IC50 [1, 6]: 3.3 mM

O=C[C@@H](O)[C@@H](O)[C@H](O)[C@H](O)CO [D-mannose]
IC50 [1]: 16 mM

O=CC[C@H](O)[C@H](O)CO [2-deoxyribose]
IC50 [1, 6]: 1.8 mM

OCC(O)CO [glycerol]
IC50 [1, 6]: 0.8 mM

OC[C@@H](O)[C@@H](O)[C@@H](O)CO [ribitol]
IC50 [1, 6]: 1.2 mM

C[C@H](O)CO [(S)-1,2-propanediol]
IC50 [1, 6]: 1.2 mM

O=C[C@@H](O)[C@H](O)[C@@H](O)CO [L-xyrose]
IC50 [1, 6]: 9 mM

O=P(O)(O)OCC(O)CO (stereo not drawn) [alpha-glycerophosphate]
IC50 [1, 6]: 1.2 mM

O=C[C@@H](O)[C@@H](O)[C@H](O)CO [D-lyxose]
IC50 [1, 6]: 22 mM

O=C[C@H](O)[C@H](O)[C@H](O)CO [D-ribose]
IC50 [1, 6]: 0.5 mM

C[C@H](O)[C@@H](O)[C@@H](O)[C@H](O)C=O [L-fucose]
IC50 [1, 6]: > 100 mM

Etanercept
cytotoxicity inhibitory activity (cell survival rate) [4]: approximately equivalent cytotoxicity inhibitory activities
association rate constant Ka [5]: 1.09e+06 M⁻¹ s⁻¹
dissociation rate constant Kd [5]: 0.000342 s⁻¹
Kd ([5]; read-out: dissociation constant KD): 0.313 nM

O=C[C@H](O)[C@@H](O)[C@@H](O)CO [L-arabinose]
IC50 [1, 6]: 22 mM

COC1(C(=O)O)C[C@H](O)[C@@H](NC(C)=O)[C@H]([C@H](O)[C@H](O)CO)O1 (stereo partly drawn) [2-O-methyl-D-N-acetylneuraminic acid]
IC50 [1, 6]: 6 mM

C[C@@H](O)CO [(R)-1,2-propanediol]
IC50 [1, 6]: 1 mM

O=C[C@@H](O)[C@H](O)[C@H](O)CO [D-arabinose]
IC50 [1, 6]: 30 mM

O=P(O)(O)OC(CO)CO [Beta-glycerophosphate]
IC50 [1, 6]: > 100 mM

CCCCCCCCCCCCCCCC(=O)OCC(O)CO (stereo not drawn) [1-monopalmitin]
binding of intelectin to the lipid (SDS-PAGE) [2]: bound

O=C1O[C@H]([C@@H](O)CO)C(O)=C1O [L-ascorbic acid]
IC50 [1, 6]: 0.8 mM

COCCO [2-methoxyethanol]
IC50 [1, 6]: > 100 mM

CCCCCCCCCCCCCCCC(=O)OC(CO)CO [2-monopalmitin]
binding of intelectin to the lipid (SDS-PAGE) [2]: bound

C[C@H](O)[C@H](O)[C@@H](O)[C@@H](O)C=O [L-rhamnose]
IC50 [1, 6]: 30 mM

O=C(CO)[C@@H](O)[C@H](O)[C@H](O)CO [D-fructose]
IC50 [1]: 9 mM

CC(=O)N[C@H]1C(O)O[C@H](CO)[C@@H](O[C@@H]2O[C@@H]([C@H](O)CO)[C@H](O)[C@H]2O)[C@@H]1O (stereo partly drawn) [Galf-GlcNAc, 2-acetamido-2-deoxy-4-O-beta-D-galactofuranosyl-D-glucopyranose]
IC50 [1, 6]: 1.4 mM

NCCO [Ethanolamine]
IC50 [1, 6]: > 100 mM

NC(CO)(CO)CO [Tris]
IC50 [1, 6]: 14 mM

O=C(CO)[C@@H](O)[C@H](O)[C@@H](O)CO [L-sorbose]
IC50 [1]: 14 mM
